Tested on: strain 168-PR containing the plasmid PHT01-P43D-GFP
Test: Specificity (orthogonality) of pyruvate biosensor towards inducing agents
Assay type: cell-based, Bacillus subtilis
Conditions: 5 g of inducing agent added to the medium; strain 168-PR with PHT01-P43D-GFP
Procedure: 2. Detection method for Relative fluorescence intensity: The strain to be determined for the fluorescence intensity is streaked into LB solid medium containing chloramphenicol (5 μg/mL) in a plate. Single colonies are picked up and inoculated into LB liquid medium and incubated at 37° C. and 220 rpm for 12 h. Then the cell suspension is inoculated into 200 μL of LB liquid medium in a 96-well fluorescent microplate in an amount of 2% (V/V), and incubated at 37° C. and 900 rpm. The microplate is removed at different times, and the fluorescence intensity (excitation light: 488 nm, absorption light: 520 nm) and cell density (600 nm) are determined on the Cytation microplate reader (BioTek).

Row | Structure (SMILES) | induction of the activity of the pyruvate biosensor
1 | CC(C)S[C@@H]1O[C@H](CO)[C@H](O)[C@H](O)[C@H]1O [IPTG] | only pyruvate can significantly induce
2 | CC(=O)O [acetic acid] | only pyruvate can significantly induce
3 | CC(=O)C(C)O (stereo not shown) [acetoin] | only pyruvate can significantly induce
4 | C[C@H](N)C(=O)O [alanine] | only pyruvate can significantly induce
5 | O=C[C@@H](O)[C@H](O)[C@H](O)CO [arabinose] | only pyruvate can significantly induce
6 | O=C(O)[C@@H](O)[C@@H](O)[C@H](O)[C@@H](O)C(=O)O [glucaric acid] | only pyruvate can significantly induce
7 | CC(O)C(=O)O (stereo not shown) [lactic acid] | only pyruvate can significantly induce
8 | OC[C@H]1O[C@@H](O[C@H]2[C@H](O)[C@@H](O)C(O)O[C@@H]2CO)[C@H](O)[C@@H](O)[C@H]1O (stereo partly shown) [lactose] | only pyruvate can significantly induce
9 | O=C[C@H](O)[C@@H](O)[C@H](O)CO [xylose] | only pyruvate can significantly induce
10 | O=C(O)CCC(=O)C(=O)O [α-ketoglutaric acid] | only pyruvate can significantly induce

Reference: patent US11697818B2, “Pyruvate-responsive biosensor, and construction method and use thereof” (priority 2020, dated 2023)
